Measured values published in PMC10799085, “A miniaturized mode-of-action profiling platform enables high throughput characterization of the molecular and cellular dynamics of EZH2 inhibition” (Scientific Reports, 2024).
Read-outs that look alike come from different tables or passages of the source.

Experiments:
PRC2/EZH2+/+ [1] = target: T1, PRC2/EZH2+/+ (Homo sapiens, UniProt Q15910); assay: Kinetic probe competition assay (kPCA), TR-FRET; format: binding
T1 construct: purchased Active Motif
Procedure: (§1) Biotinylated PRC2 complexes and the fluorescent probe used in TR-FRET assays were generated as described in the supplementary methods section.
For measurements at 25, 30 and 37 °C, the temperature control functionality of the instrument was used.
TR-FRET kPCA traces were exported via Microsoft Excel to GraphPad Prism, where non-specific signals were subtracted and kinetic association competition traces were fitted to the Motulsky–Mahan model “kinetics of competitive binding” to obtain kon (k3), koff (k4) and KD parameters.

PRC2/EZH2Y641N = target: T2, PRC2/EZH2Y641N (Homo sapiens, UniProt Q15910, Y641N); assay: Kinetic probe competition assay (kPCA), TR-FRET; format: binding; settings: calculated
T2 construct: Synthetic cDNA encoding N-terminal 6His-tagged full length EZH2^Y641N; 6His (N); made in house; host or cells: Sf9 insect cells (baculovirus co-infection)
From the text: as §1

PRC2/EZH2+/+ [2] = target: T1, PRC2/EZH2+/+; assay: Equilibrium binding thermodynamics (van't Hoff analysis of ePCA/kPCA at 5-37 °C); settings: ePCA at 5-37 °C, wild type EZH2
Procedure: For thermodynamic analysis of the binding to EZH2+/+ the probe characterization, equilibrium and kinetic probe competition assays described above (previously conducted at 25 °C) were performed at 5, 15, 30 and 37 °C. […] For measurements at 25, 30 and 37 °C, the temperature control functionality of the instrument was used.
Equilibrium and kinetic binding constants obtained at various temperatures were used to determine the thermodynamic parameters by van’t Hoff and Eyring analysis, as described elsewhere for SPR and radioligand binding experiments[46],[69]. For the van’t Hoff thermodynamic analysis, changes in entropy ΔS° and enthalpy ΔH° were estimated by linear regression using the van’t Hoff equation. lnKA=ΔS^∘/R-ΔH^∘/RT,
Changes in Gibb’s free energy ΔG° were calculated according to. ΔG^∘T=ΔH^∘-T×ΔS^∘
Additionally, the possible temperature dependence of the thermodynamic parameters was considered using the integrated form of the van’t Hoff equation[47] for nonlinear regression to yield the changes in entropy, enthalpy, and heat capacity ΔCp: ln KA=-ΔH^∘T^∘/RT+ΔS^∘T^∘/R+ΔCp/R[T-T^∘/T-lnT/T^∘],

PRC2/EZH1 = target: T3, PRC2/EZH1 (Homo sapiens, UniProt Q92800); assay: Scintillation proximity assay (SPA) of H3K27 methylation; format: biochemical
T3 construct: N-terminal 6His-tagged full length EZH2^Y641N, EZH2^Y111L, EZH2^Y111D, EZH2^Y641N, Y661DEZH2, EZH1; 6His (N); made in house; host or cells: Sf9 insect cells (baculovirus co-infection)
Procedure: Assay-ready plates containing 50 nl of compound dilutions and DMSO controls were filled with 2.5 µL enzyme solution and pre-incubated for 15 min. […] Experiments were also performed without pre-incubation of enzyme and compounds. In this case, the substrate solution was added before enzyme. The reaction was stopped using 1.6 µg/µl streptavidin beads (Perkin Elmer) and 700 µM of SAM (Perkin Elmer). The plates were sealed with transparent foil.
For equilibrium binding competition (ePCA) and SPA enzyme inhibition assays, raw data import, quality control, normalization, and curve fitting to a 4-parameter logistic equation for IC50 determination were performed using the Genedata Screener® software (Genedata AG). ePCA Ki values were either calculated using the Cheng-Prussof equation[68] or with the GraphPad Prism model “One-site—Fit Ki”.

[3] = test system: H3K27me3 mark in MDA-MB-231 cells; assay: High content analysis (HCA) of cellular H3K27me3 mark, washout format; format: cell-based; settings: for IC50: H3K27 methylation HCA, read-out: Mean IC50
Procedure: In the low- and high-signal control wells, test compounds were replaced by 10 µM of EZH2 inhibitor (equal to unlabeled probe from ePCA and kPCA) or DMSO, respectively. […] After fixation, the cells were washed with PBS and incubated with 1% BSA blocking solution at RT for 1 h. Blocking solution was discarded, primary monoclonal antibody rabbit Tri-methyl-histone H3K27 (C36B11, Cell signaling) diluted 1:200 in blocking solution was added and incubated overnight at 4 °C. […] Afterwards, cells were washed three times with PBS and incubated at 4 °C until measuring. Fluorescence signals were captured by an Opera Phenix™ High Content Screening (HCA) system (Perkin Elmer) by 10× magnification. […] Microscopy images were initially visualized and preprocessed with MetaXpress High Content Image Acquisition & Analysis Software (Molecular Devices) as previously described. Raw data import, normalization, quality control and fitting curves for IC50 determination of tested compounds were done with Genedata Screener® for high-content screening. Wells with no recognizable signals were masked and the average intensity of the trimethylation signal was normalized to the DMSO control (0%).

KARPAS-422 cells = assay: Cellular proliferation assay (AlamarBlue, 144 h); format: cell-based; settings: KARPAS-422 cells, 6-day (144 h), AlamarBlue; read-out: KARPAS (6-day) Anti-proliferation IC50
Procedure: Cell viability was determined by means of the AlamarBlue® reagent (Thermo Fisher Scientific) following instructions from the manufacturer. […] Anti-proliferative IC50s were calculated by fitting the normalized AlamarBlue® fluorescence values to a 4-parameter logistic equation using the Electronic Notebook (ELN) software from IDBS.

in vitro = in vitro ADME; settings: 2 µM, 2 h, 37 °C, basolateral to apical
Procedure: Cells were kept at 37 °C in a humidified 5% CO2 atmosphere. Before the permeation assay was run, the culture medium was replaced by an FCS-free HEPES carbonate transport buffer (pH 7.2). For assessment of monolayer integrity, the transepithelial electrical resistance was measured. Test compounds were pre-dissolved in DMSO and added either to the apical or basolateral compartment at a final concentration of 2 µM. Before and after 2 h incubation at 37 °C, samples were taken from both compartments. Analysis of compound content was conducted after precipitation with methanol by LC/MS/MS analysis. Reference compounds were analyzed in parallel as assay control. Permeability (Papp) was calculated in the apical to basolateral (A → B) and basolateral to apical (B → A) directions. The efflux ratio basolateral (B) to apical (A) was calculated by dividing Papp B–A by Papp A–B.

Compound: CC[C@H](C)n1cc(C)c2c(C(=O)NCc3c(C)cc(C)[nH]c3=O)cc(-c3ccc(N4CCNCC4)nc3)cc21 [Compound 4, GSK126]
- Calculated RT (PRC2/EZH2+/+ [1]; EZH2+/+ (+ H3K27me3)): 0.44 h
- RT (Calculated) (PRC2/EZH2+/+ [1]; EZH2+/+ (- H3K27me3), 15 °C): 0.0145 h
- RT (Calculated) (PRC2/EZH2+/+ [1]; EZH2+/+ (- H3K27me3), 30 °C): 0.031 h
- RT (Calculated) (PRC2/EZH2+/+ [1]; EZH2+/+ (- H3K27me3), 37 °C): 0.0092 h
- Calculated RT (PRC2/EZH2+/+ [1]; EZH2+/+ (- H3K27me3)): 0.06 h
- Calculated RT (PRC2/EZH2Y641N; EZH2Y641N (+ H3K27me3)): 0.22 h
- Calculated RT (PRC2/EZH2Y641N; EZH2Y641N (- H3K27me3)): 0.0666 h
- binding driving force, polynomial van't Hoff analysis (PRC2/EZH2+/+ [2]): entropy-driven
- IC50 (PRC2/EZH1; 0' enzyme:inhibitor pre-incubation, read-out: SPA Mean IC50 (M) - 0' enzyme:inhibitor pre-incubation EZH1): 1.1e-06 M
- IC50 (PRC2/EZH1; 15' enzyme:inhibitor pre-incubation, read-out: SPA Mean IC50 (M) - 15' enzyme:inhibitor pre-incubation EZH1): 4.4e-07 M
- IC50 (PRC2/EZH1; 60' enzyme:inhibitor pre-incubation, read-out: SPA Mean IC50 (M) - 60' enzyme:inhibitor pre-incubation EZH1): 1e-06 M
- IC50 ([3]; incubation time 0.5 h, washout time 71.5 h): 5.8 µM
- IC50 ([3]; incubation time 1 h, washout time 71 h): 2.9 µM
- IC50 ([3]; incubation time 2 h, washout time 70 h): 2.4 µM
- IC50 ([3]; incubation time 4 h, washout time 68 h): 1.8 µM
- IC50 ([3]; incubation time 24 h, washout time 48 h): 1.4 µM
- IC50 ([3]; incubation time 48 h, washout time 24 h): 0.7 µM
- IC50 ([3]; incubation time 72 h, washout time 0 h): 0.31 µM
- AUC (a.u.) ([3]; HCA H3K27 methylation washout pIC50 AUC over all incubation/washout times): 81.2 a.u.
- IC50 (KARPAS-422 cells): 0.28 µM
- PK Caco-2 Flux Papp B-A (mean) (in vitro): 9.838 ×10⁻⁶ cm/s
